# Laboratory results taken from patent US9175022B2, “Compounds for the treatment of proliferative disorders” (Synta Pharmaceuticals Corp., priority 2005, dated 2015).
# What was measured:
# CV-1 cells = assay: Microtubule disruption in cells resistant to colchicine and vincristine; assay type: cell-based; settings: 500 nM; 24, 48 and 72 hr
# Method: The effects of compounds of the invention on microtubules can be studied in CV-1 cells. The microtubules of CV-1 cells are known to be resistant to the depolymerizing effects of colchicine and vincristine. CV-1 cells are treated with 500 nM of a compound of the invention, or vincristine or colchicines. At 24, 48 and 72 hr the cells are fixed and stained to examine microtubule structure. In cells treated with compounds of the invention, microtubule structures are expected to be diminished compared to untreated cells.
# MES-SA = assay: In vitro cytotoxicity, MTS assay, 72 hours; assay type: cell-based; settings: Homo sapiens, read-out: IC50 (concentration required to inhibit 50% tumor cell growth)
# Method: (§1) The in vitro cytotoxicity of the compounds of the invention was determined in the following human cell lines: HL-60, HL-60-TX1000 (MDR), MES-SA and MES-SA/DX5 (uterine sarcoma). MES-SA is a model of uterine sarcoma, and the cells are sensitive to a number of chemotherapeutic agents including doxorubicin, dactinomycin, mitomycin C, taxol and bleomycin. The MES-SA/Dx5 cell line was established in the presence of increasing concentrations of doxorubicin. […] All cells except HL-60-TX1000 were purchased from ATCC. HL-60, a model of myeloid leukemia, was from ATCC and HL60/TX1000 was a gift from Dr. Bhalla of Emory University School of Medicine. HL-60/TX1000 was isolated in vitro by subculturing HL-60 in progressively higher concentration of Taxol. HL-60/TX1000 cells over-express mdr-1 mRNA and p-glycoprotein, as determined by western blot and immunofluorescence labeling with antiPGP antibodies
# (§2) The cell lines were maintained in RPMI1640 (GIBCO) supplemented with 10% FCS, 100 units/mL penicillin, 100 ug/ml streptomycin, and 2 mM L-glutamine. Cells were split every third day and diluted to a concentration of 2×10^5 cells/mL one day before the experiment was performed. All experiments were performed on exponentially growing cell cultures. Cell densities were 2.5×10^4 cells/mL in all experiments.
# (§3) Test compounds were prepared by dissolving the compounds at a concentration of 10 mM in 100% DMSO. Final concentrations 10, 1, 0.1, 0.01 and 0.001 μM were obtained by diluting the stock solution directly into the tissue culture medium. Cells were incubated with varying concentrations of test compounds for 72 hours and the IC50 was determined by MTS (i.e. […]) assay. IC50 in this context stands for the concentration of a compound required to inhibit 50% tumor cell growth.
# HL-60-TX1000 (MDR) = assay: In vitro cytotoxicity, MTS assay, 72 hours; assay type: cell-based; settings: Homo sapiens, HL60/TX1000, HL-60-TX1000 multi-drug resistant, read-out: IC50 (concentration required to inhibit 50% tumor cell growth)
# Method: as §1, §2, §3
# [1] = tested on: MES-SA/DX5 (uterine sarcoma); assay: In vitro cytotoxicity, MTS assay, 72 hours; assay type: cell-based; settings: Homo sapiens, MES-SA/DX5 multi-drug resistant, read-out: IC50 (concentration required to inhibit 50% tumor cell growth)
# Method: as §1, §2, §3
# HL-60 = assay: In vitro cytotoxicity, MTS assay, 72 hours; assay type: cell-based; settings: Homo sapiens, HL-60, 72 hours, read-out: IC50 (concentration required to inhibit 50% tumor cell growth)
# Method: as §1, §2, §3
# [2] = tested on: MDA-MB-435S melanoma cells or RERF-LC-AI lung tumor cells; assay: Anti-tumor activity in nude mouse xenograft models; assay type: in vivo; settings: i.v.
# Method: The human tumor cell line, MDA-MB-435S (ATCC #HTB-129; G. Ellison, et al., Mol. Pathol. 55:294-299, 2002), is obtained from the American Type Culture Collection (ATCC; Manassas, Va., USA). The human tumor cell line, RERF-LC-AI (RCB0444; S. Kyoizumi, et al., Cancer. Res. 45:3274-3281, 1985), is obtained from the Riken Cell Bank (RCB; Tsukuba, Ibaraki, Japan). The cell lines are cultured in growth media prepared from 50% Dulbecco's Modified Eagle Medium (high glucose), 50% RPMI Media 1640, 10% fetal bovine serum (FBS), 1% 100×L-glutamine, 1% 100× Penicillin-Streptomycin, 1% 100× sodium pyruvate and 1% 100×MEM non-essential amino acids. FBS is obtained from ATCC and all other reagents are obtained from Invitrogen Corp. (Carlsbad, Calif., USA). […] The supernatant is aspirated and the cell pellet is resuspended in 10 mL of growth media and the cell number is determined using a hemocytometer. […]
# Tumors are then permitted to develop in vivo until they reached approximately 100-200 mm^3 in volume, which typically required 2-3 weeks following implantation. Tumor volumes (V) are calculated by caliper measurement of the width (W), length (L) and thickness (T) of tumors using the following formula: V=0.5326×(L×W×T). […]
# [3] = tested on: CHO-α-tubulin-YFP or MCF7-α-tubulin-YFP cells; assay: Inhibition of tubulin polymerization, tubulin-YFP fluorescence imaging; assay type: cell-based; settings: living or fixed cells, fluorescence microscopy
# From the text: Wild-type Chinese Hamster Ovary cells (WT CHO) cells are maintained in Ham's F-12 medium supplemented with 10% fetal bovine serum (FBS; HyClone, Logan, Utah). Cells of low density (−20%) growing on 2-well chambered cover-slips (Labtek (Campbell, Calif.) or Fisher Scientific) are transfected with a mammalian expression vector encoding α-tubulin-YFP (Clontech, Palo Alto, Calif.) with the use of FuGENE 6 (Roche Molecular Biochemicals, Indianapolis, Ind.), according to the manufacturer's instructions. Twenty-four hours after transfection, the cells are cultured in 400 μg/ml G418 (Invitrogen, Carlsbad, Calif.)-containing selection medium for 2 weeks. Living cells are examined using a fluorescent microscope for α-tubulin-YFP expression. […] Expressed tubulin-YFP is detected as a single band in Western blots. […]
# CHO-α-tubulin-YFP or MCF7-α-tubulin-YFP cells are cultured in 2-well chambered cover-slips (Labtek (Campbell, Calif.) or Fisher Scientific) for 24 hours before treatment with a compound of the invention. […] Tubulin-YFP fluorescence in living cells or fixed cells is captured using a standard filter for FITC and objectives of 20× or 60× magnification on a Nikon TE300 microscope with a Leica DC50 color digital camera (Leica, Bannockburn, Ill.) or a CoolSnap HQ monochrome CCD camera (Photonetrics, Tucson, Ariz.). […]
SMILES,microtubule structure (CV-1 cells),IC50 (MES-SA) [nM],IC50 (HL-60-TX1000 (MDR)) [nM],IC50 [1] [nM],IC50 (HL-60) [nM],overt toxicity (effect on body weights) ([2]; nude mice),"tumor growth ([2]; 3 days per week, 9-10 doses, compounds 6.25, 12.5 and 25 mg/kg, paclitaxel 7.5 mg/kg)",tubulin-YFP labeled microtubule pattern [3]
"CC[C@]1(O)C[C@H]2CN(CCc3c([nH]c4ccccc34)[C@@](C(=O)OC)(c3cc4c(cc3OC)N(C=O)[C@H]3[C@@](O)(C(=O)OC)[C@H](OC(C)=O)[C@]5(CC)C=CCN6CC[C@]43[C@@H]65)C2)C1 [vincristine, Vincristine]",Disorganized but clear microtubule structures,–,–,–,–,–,–,–
"COc1ccc(-c2cnnn2-c2cc(OC)c(OC)c(OC)c2)cc1 [Compound 3, 1-(3,4,5-trimethoxy-phenyl)-5-(4-methoxy-phenyl)-1H-[1,2,3]triazole]",–,52,20,37,53,minimal,–,–
"CC(=O)O[C@H]1C(=O)[C@@]2(C)[C@H]([C@H](OC(=O)c3ccccc3)[C@]3(O)C[C@H](OC(=O)[C@H](O)[C@@H](NC(=O)c4ccccc4)c4ccccc4)C(C)=C1C3(C)C)[C@]1(OC(C)=O)CO[C@@H]1C[C@@H]2O [paclitaxel, reference compound]",–,–,–,–,–,–,decreased tumor growth,–
"COc1cc(-n2nncc2-c2ccc(N(C)C)cc2)cc(OC)c1OC [Compound 5, 1-(3,4,5-trimethoxy-phenyl)-5-[4-(N,N-dimethylamino)-phenyl]-1H-[1,2,3]triazole]",–,68.5,7.5,29,41.5,–,–,–
"COc1cc2c(c(OC)c1OC)-c1ccc(OC)c(=O)cc1[C@@H](NC(C)=O)CC2 [colchicines, colchicine]",Disorganized but clear microtubule structures,–,–,–,–,–,–,–
"CC(=O)O[C@H]1C(=O)[C@@]2(C)[C@H]([C@H](OC(=O)c3ccccc3)[C@]3(O)C[C@H](OC(=O)[C@H](O)[C@@H](NC(=O)c4ccccc4)c4ccccc4)C(C)=C1C3(C)C)[C@]1(OC(C)=O)CO[C@@H]1C[C@@H]2O [Taxol, paclitaxel, reference compound]",–,5,1000,5000,2,–,–,microtubule bundle formation
